{"source": "ChEMBL document CHEMBL1201862", "about": "“PubChem BioAssay data set” (2004)", "key": {"fMet-Leu-Phe receptor": {"molecular_target": "T1, fMet-Leu-Phe receptor (Homo sapiens, UniProt P21462)", "T1 sequence (P21462 whole entry)": "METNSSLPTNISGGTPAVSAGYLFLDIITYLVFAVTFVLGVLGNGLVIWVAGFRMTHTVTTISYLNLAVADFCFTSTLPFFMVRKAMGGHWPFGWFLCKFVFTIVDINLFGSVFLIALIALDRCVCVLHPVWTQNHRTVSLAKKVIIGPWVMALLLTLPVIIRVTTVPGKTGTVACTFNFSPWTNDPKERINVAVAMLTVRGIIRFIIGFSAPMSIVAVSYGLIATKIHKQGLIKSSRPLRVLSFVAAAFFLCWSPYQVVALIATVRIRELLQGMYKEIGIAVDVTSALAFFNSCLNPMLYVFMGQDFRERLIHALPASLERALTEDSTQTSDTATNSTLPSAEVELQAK", "assay": "formyl peptide receptor binders – dose response (AID 519)", "type": "functional"}, "Cytochrome P450 3A4": {"molecular_target": "Cytochrome P450 3A4 (Homo sapiens, UniProt P08684)", "sequence (P08684 whole entry)": "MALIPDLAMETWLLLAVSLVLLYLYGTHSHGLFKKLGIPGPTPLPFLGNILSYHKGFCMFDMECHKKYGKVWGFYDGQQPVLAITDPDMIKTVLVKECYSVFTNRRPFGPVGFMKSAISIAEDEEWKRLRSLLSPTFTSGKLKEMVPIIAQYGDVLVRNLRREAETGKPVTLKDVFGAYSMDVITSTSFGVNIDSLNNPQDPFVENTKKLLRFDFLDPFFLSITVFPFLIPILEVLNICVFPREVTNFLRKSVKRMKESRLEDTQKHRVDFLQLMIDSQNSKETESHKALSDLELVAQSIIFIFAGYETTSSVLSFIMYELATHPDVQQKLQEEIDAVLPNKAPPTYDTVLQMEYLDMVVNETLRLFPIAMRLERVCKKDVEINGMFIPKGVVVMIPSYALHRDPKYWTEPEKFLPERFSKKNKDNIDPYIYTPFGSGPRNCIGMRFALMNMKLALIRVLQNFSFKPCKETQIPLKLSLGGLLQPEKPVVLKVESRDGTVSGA"}, "Cytochrome P450 1A2": {"molecular_target": "T2, Cytochrome P450 1A2 (Homo sapiens, UniProt P05177)", "T2 sequence (P05177 whole entry)": "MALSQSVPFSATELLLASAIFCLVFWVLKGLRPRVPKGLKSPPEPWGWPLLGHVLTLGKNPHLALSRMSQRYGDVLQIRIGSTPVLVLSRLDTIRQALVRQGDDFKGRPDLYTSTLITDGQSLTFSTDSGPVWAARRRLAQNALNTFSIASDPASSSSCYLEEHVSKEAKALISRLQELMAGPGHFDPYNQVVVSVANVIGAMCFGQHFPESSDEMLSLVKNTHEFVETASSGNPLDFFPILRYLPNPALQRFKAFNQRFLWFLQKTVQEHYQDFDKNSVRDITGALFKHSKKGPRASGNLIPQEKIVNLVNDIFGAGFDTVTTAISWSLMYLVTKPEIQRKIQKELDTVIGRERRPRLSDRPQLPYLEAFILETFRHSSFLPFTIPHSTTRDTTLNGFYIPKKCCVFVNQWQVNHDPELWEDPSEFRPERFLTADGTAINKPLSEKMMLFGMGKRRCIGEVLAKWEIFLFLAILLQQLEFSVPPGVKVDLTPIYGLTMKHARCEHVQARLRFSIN"}, "[1]": {"assay": "Luminescence Cell-Based Dose Response HTS to Identify Activators of Luciferase Translation or Activity in H4 […] Cells. [Related pubchem assays: 1829 (Project Summary), 1814 (Primary HTS)]", "type": "functional"}, "H4": {"test_system": "H4", "assay": "Luminescence Cell-Based Dose Response HTS to Identify Activators of 5'UTR Stem-Loop Driven Prion Protein mRNA Translation in H4 Neuroglioblastoma Cells. [Related pubchem assays: 1829 (Project Summary), 1814 (Primary HTS)]", "type": "functional", "conditions": "Homo sapiens"}, "[2]": {"assay": "nonselective StAR promoter luciferase inhibitors – cell-based, luminescence, luciferase reporter, counter-screen for LRH-1 inverse agonist project, dose response (AID 651969)", "type": "functional"}, "[3]": {"molecular_target": "Nuclear receptor subfamily 5 group A member 2 (Homo sapiens, UniProt O00482)", "sequence (O00482 whole entry)": "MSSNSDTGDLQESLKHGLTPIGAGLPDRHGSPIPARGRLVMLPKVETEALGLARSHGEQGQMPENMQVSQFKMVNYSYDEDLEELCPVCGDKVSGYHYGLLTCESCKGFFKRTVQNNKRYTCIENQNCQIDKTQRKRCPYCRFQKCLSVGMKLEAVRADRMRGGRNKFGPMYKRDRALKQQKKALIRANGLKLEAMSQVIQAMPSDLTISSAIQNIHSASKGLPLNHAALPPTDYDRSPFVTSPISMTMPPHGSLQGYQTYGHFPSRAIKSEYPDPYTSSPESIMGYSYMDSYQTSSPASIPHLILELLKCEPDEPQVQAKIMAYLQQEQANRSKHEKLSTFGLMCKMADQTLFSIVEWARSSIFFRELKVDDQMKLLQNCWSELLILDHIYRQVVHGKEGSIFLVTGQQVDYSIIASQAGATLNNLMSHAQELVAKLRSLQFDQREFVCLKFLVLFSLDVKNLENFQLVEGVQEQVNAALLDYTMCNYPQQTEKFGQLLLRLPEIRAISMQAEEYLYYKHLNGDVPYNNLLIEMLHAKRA", "type": "functional, cell-based"}, "Steroidogenic factor 1": {"molecular_target": "Steroidogenic factor 1 (Homo sapiens, UniProt Q13285)", "sequence (Q13285 whole entry)": "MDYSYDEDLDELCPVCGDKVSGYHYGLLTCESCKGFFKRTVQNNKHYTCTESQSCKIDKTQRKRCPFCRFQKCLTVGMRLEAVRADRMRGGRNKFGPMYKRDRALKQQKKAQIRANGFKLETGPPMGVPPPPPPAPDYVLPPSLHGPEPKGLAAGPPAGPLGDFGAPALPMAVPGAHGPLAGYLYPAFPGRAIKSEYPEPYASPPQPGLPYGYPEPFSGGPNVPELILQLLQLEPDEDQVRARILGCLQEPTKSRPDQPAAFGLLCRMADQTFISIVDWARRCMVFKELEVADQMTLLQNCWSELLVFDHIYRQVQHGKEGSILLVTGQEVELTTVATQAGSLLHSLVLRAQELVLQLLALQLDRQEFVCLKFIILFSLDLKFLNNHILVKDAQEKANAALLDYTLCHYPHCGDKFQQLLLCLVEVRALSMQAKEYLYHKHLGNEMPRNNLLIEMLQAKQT", "assay": "Counterscreen for inverse agonists of the liver receptor homolog-1 (LRH-1; NR5A2): Luminescence-based cell-based high throughput dose response assay to identify inverse agonists of the Steroidogenic Factor 1 Nuclear Receptor (SF1; NR5A1).", "type": "functional"}, "[4]": {"assay": "IGROV1 cell killing – plate reader, dry powder samples, PAX8 inhibitor project, dose response (AID 743043)", "type": "functional, cell-based", "conditions": "IGROV-1"}, "Paired box protein Pax-8": {"molecular_target": "Paired box protein Pax-8 (Homo sapiens, UniProt Q06710)", "sequence (Q06710 whole entry)": "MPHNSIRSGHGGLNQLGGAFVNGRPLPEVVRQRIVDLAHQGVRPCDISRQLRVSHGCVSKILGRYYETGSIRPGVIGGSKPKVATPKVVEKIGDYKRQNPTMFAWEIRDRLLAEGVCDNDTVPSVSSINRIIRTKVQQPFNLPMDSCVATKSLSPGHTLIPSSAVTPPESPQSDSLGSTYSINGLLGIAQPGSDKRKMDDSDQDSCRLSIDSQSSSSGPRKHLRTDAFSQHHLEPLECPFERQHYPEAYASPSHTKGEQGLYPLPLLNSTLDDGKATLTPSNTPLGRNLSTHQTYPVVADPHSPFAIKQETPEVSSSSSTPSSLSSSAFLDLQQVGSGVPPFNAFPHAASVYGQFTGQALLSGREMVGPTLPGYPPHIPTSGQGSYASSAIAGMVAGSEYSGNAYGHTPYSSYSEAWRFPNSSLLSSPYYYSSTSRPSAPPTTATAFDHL", "assay": "PAX8 transcriptional activity inhibition in RMG-I – RMG-I cells, luciferase, cherry-pick, dose response (AID 687027);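 note: luciferase reporter driven by Pax8 target thyroperoxidase promoter measured by SteadyGlo luminescence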", "type": "functional, cell-based"}, "[5]": {"assay": "OVCAR-3 cell viability loss – plate reader, dry powder samples, PAX8 inhibitor project, dose response (AID 743044)", "type": "functional, cell-based"}, "[6]": {"assay": "OVCAR8 cell viability loss – plate reader, dry powder samples, PAX8 project, dose response (AID 743197)", "type": "functional, cell-based", "conditions": "OVCAR-8"}, "[7]": {"assay": "DRD fibroblast viability loss – cell-based, non-viral oncogenic, luminescence, dose response (AID 1934)", "type": "functional", "conditions": "Homo sapiens"}, "BJ [8]": {"test_system": "BJ", "assay": "BJ-TERT-LT-ST fibroblast viability loss – cell-based, RAS-independent, luminescence, dose response (AID 1935);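 note: BJ fibroblasts immortalized with TERT plus LT and ST oncogenes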", "type": "functional", "conditions": "Homo sapiens"}, "Vero [9]": {"test_system": "Vero", "assay": "cells", "type": "functional, cell-based", "conditions": "Chlorocebus sabaeus"}, "Vero [10]": {"test_system": "Vero", "assay": "cells", "type": "functional", "conditions": "Chlorocebus sabaeus"}, "BJ [11]": {"test_system": "BJ", "assay": "BJ-TERT fibroblast viability loss – cell-based, RAS-independent, luminescence, dose response (AID 1933)", "type": "functional", "conditions": "Homo sapiens"}, "BJ [12]": {"test_system": "BJ", "assay": "cells", "type": "functional, cell-based", "conditions": "Homo sapiens"}, "[13]": {"assay": "general cell-killing toxicity readout – plate reader, dry powder samples, cytotoxicity control for PAX8 inhibitor project, dose response (AID 743021)", "type": "functional, cell-based"}, "[14]": {"assay": "blockers of CRF-binding protein–CRF-R2 complex – cell-based, uHTS hits, 384-well, dose response (AID 651639)", "type": "functional, Homo sapiens", "conditions": "read-out: IC50_Mean"}, "[15]": {"molecular_target": "T3, Corticotropin-releasing factor receptor 2/Corticotropin-releasing factor-binding protein (Homo sapiens, UniProt P24387+Q13324)", "T3 sequence (Q13324 whole entry)": "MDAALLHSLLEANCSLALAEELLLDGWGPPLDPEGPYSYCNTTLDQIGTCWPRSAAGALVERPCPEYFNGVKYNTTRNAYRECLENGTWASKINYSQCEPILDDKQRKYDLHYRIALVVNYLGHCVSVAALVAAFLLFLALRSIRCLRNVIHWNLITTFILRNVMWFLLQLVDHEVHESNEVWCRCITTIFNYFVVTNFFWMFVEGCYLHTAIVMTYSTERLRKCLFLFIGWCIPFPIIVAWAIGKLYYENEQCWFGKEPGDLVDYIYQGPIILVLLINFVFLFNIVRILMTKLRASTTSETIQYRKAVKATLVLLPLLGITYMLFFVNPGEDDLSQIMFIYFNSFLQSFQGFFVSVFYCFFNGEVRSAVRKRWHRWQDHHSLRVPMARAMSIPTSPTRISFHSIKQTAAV", "T3 sequence (P24387 whole entry)": "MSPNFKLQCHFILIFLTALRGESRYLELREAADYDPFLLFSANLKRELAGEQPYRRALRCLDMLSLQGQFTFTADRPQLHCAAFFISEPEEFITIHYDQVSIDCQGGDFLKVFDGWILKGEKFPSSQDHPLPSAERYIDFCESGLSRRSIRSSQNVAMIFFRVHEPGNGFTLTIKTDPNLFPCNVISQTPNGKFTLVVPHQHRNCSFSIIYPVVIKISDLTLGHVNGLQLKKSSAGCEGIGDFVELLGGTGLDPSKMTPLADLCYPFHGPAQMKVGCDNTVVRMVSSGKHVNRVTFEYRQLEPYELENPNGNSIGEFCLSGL", "assay": "Dose Response confirmation of uHTS hits for small molecule antagonists of the CRF-binding protein and CRF-R2 receptor complex.", "type": "functional", "conditions": "read-out: IC50_Mean"}, "[16]": {"molecular_target": "T3, Corticotropin-releasing factor receptor 2/Corticotropin-releasing factor-binding protein", "assay": "activators of CRF receptor 2 with binding protein – uHTS hits, confirmation (AID 602473)", "type": "functional", "conditions": "read-out: EC50_Mean"}, "[17]": {"assay": "viability loss in HEK293 cells – cell-based, plate reader, cherry-picked samples, cytotoxicity control, dose response (AID 743446)", "type": "functional"}, "[18]": {"assay": "blockade of melanocortin 4 receptor signaling – cell-based, plate reader, cherry pick, counter-screen for LGR2 antagonist project, dose response (AID 743444);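 note: transfected HEK 293 cells stimulated with alpha-MSH peptide; potency of inhibitors of the alpha-MSH evoked signal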", "type": "functional"}, "[19]": {"assay": "toxicity toward HepG2 liver cells – cell-based, plate reader, cherry-pick, antagonist series, cytotoxicity control, dose response (AID 743416)", "type": "functional"}, "[20]": {"assay": "blockers of bursicon-stimulated LGR2 cAMP reporter – cell-based, HEK293, CRE-luciferase reporter, cherry pick, set 2, dose response (AID 743343);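 note: transfected cells were stimulated with diluted bursicon conditioned medium after compound addition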", "type": "functional"}, "[21]": {"assay": "A549 cell cytotoxicity, dose response, cytotoxicity control, plate reader, cherry-pick, antagonist series (AID 743412)", "type": "functional, cell-based"}}, "note": "Calls of active or inactive are those of the source.", "data": [{"molecule": "O=C(C1=C(O)C(=O)N(Cc2ccco2)C1c1ccccc1)c1cccs1", "note": "(centres undefined)", "values": [{"measurement": "Ki", "setting": "fMet-Leu-Phe receptor", "result": "35.2 µM (inactive)"}, {"measurement": "AC50", "setting": "Cytochrome P450 3A4", "result": "14.1 µM (inconclusive)"}, {"measurement": "AC50", "setting": "Cytochrome P450 1A2", "result": "25.1 µM (inconclusive)"}]}, {"molecule": "Cc1no[n+]([O-])c1COc1ccccc1/C=N/n1nnnc1N", "values": [{"measurement": "EC50", "setting": "[1]", "result": "7.52 µM (active)"}, {"measurement": "EC50", "setting": "H4", "result": "98.6 µM (active)"}, {"measurement": "IC50", "setting": "[2]", "result": "35.9 µM (inactive)"}, {"measurement": "IC50", "setting": "[3]", "result": "35.9 µM (inactive)"}, {"measurement": "IC50", "setting": "Steroidogenic factor 1", "result": "35.9 µM (inactive)"}]}, {"molecule": "C[C@@H]1CN([C@@H](C)CO)C(=O)c2cc(NC(=O)CCC(F)(F)F)ccc2O[C@@H](C)CCCCO[C@H]1CN(C)Cc1ccc(C(F)(F)F)cc1", "values": [{"measurement": "AC50", "setting": "[4]", "result": "65.5 µM (active)"}, {"measurement": "AC50", "setting": "Paired box protein Pax-8", "result": "2.43 µM (active)"}, {"measurement": "AC50", "setting": "[5]", "result": "17.2 µM (active)"}, {"measurement": "AC50", "setting": "[6]", "result": "50.8 µM (active)"}]}, {"molecule": "CC1(C)CCSC(/C=C/c2ccccc2)=N1", "values": [{"measurement": "EC50", "setting": "[7]", "result": "8.6 µM (active)"}, {"measurement": "EC50", "setting": "BJ [8]", "result": "12.4 µM (active)"}, {"measurement": "IC50", "setting": "Vero [9]", "result": "19.2 µM (active)"}, {"measurement": "CC50", "setting": "Vero [10]", "result": "18.5 µM (active)"}, {"measurement": "EC50", "setting": "BJ [11]", "result": "7.83 µM (active)"}, {"measurement": "EC50", "setting": "BJ [12]", "result": "143 µM (active)"}]}, {"molecule": "Cn1cc([N+](=O)[O-])c(C(=O)Nc2ccn(C34CC5CC(CC(C5)C3)C4)n2)n1", "values": [{"measurement": "IC50", "setting": "Vero [9]", "result": "24.3 µM (active)"}, {"measurement": "CC50", "setting": "Vero [10]", "result": "> 25 µM (active)"}]}, {"molecule": "C[C@@H]1CCCCO[C@@H](CN(C)Cc2ccc(Cl)c(Cl)c2)[C@@H](C)CN([C@@H](C)CO)C(=O)c2cc(NC(=O)Nc3ccccc3)ccc2O1", "values": [{"measurement": "AC50", "setting": "[4]", "result": "49.2 µM (active)"}, {"measurement": "AC50", "setting": "Paired box protein Pax-8", "result": "4.6 µM (active)"}, {"measurement": "AC50", "setting": "[5]", "result": "30.2 µM (active)"}]}, {"molecule": "CCS(=O)(=O)N1CC(=O)N2[C@H](CO)[C@@H](c3ccc(-c4ccccc4F)cc3)[C@H]2C1", "values": [{"measurement": "AC50", "setting": "[13]", "result": "60.5 µM (active)"}, {"measurement": "AC50", "setting": "[4]", "result": "28.6 µM (active)"}, {"measurement": "AC50", "setting": "Paired box protein Pax-8", "result": "5.26 µM (active)"}, {"measurement": "AC50", "setting": "[5]", "result": "14.1 µM (active)"}, {"measurement": "AC50", "setting": "[6]", "result": "63 µM (active)"}]}, {"molecule": "Cc1[nH]c2nc(SCC(=O)c3cccc([N+](=O)[O-])c3)nc-2cc1Br", "values": [{"measurement": "IC50", "setting": "[14]", "result": "6.28 µM (active)"}, {"measurement": "IC50", "setting": "[15]", "result": "< 0.368 µM (active)"}, {"measurement": "EC50", "setting": "[16]", "result": "> 53 µM (inactive)"}]}, {"molecule": "N#C[C@H]1[C@H](c2ccc(C#Cc3ccccc3F)cc2)[C@H](CO)N1C(=O)C1CCC1", "values": [{"measurement": "AC50", "setting": "[17]", "result": "17.9 µM (active)"}, {"measurement": "AC50", "setting": "[18]", "result": "14.7 µM (active)"}, {"measurement": "AC50", "setting": "[13]", "result": "21.9 µM (active)"}, {"measurement": "AC50", "setting": "[19]", "result": "32.2 µM (active)"}, {"measurement": "AC50", "setting": "Paired box protein Pax-8", "result": "11.1 µM (active)"}, {"measurement": "AC50", "setting": "[5]", "result": "23.8 µM (active)"}, {"measurement": "AC50", "setting": "[20]", "result": "11.4 µM (active)"}, {"measurement": "AC50", "setting": "[21]", "result": "29.7 µM (active)"}]}]}
